Where a name gives a salt, the structure may show the parent alone.

The subject of data set [1] is COL1A1 promotor. Kind of data set: COL1A1 promotor single luciferase reporter gene model in LX-2 (LX2-COL) cells. Format: cell-based, human. The following applies: LX-2 cells treated simultaneously with TGFβ1 and compound; for inhibition at 40 µM: Homo sapiens, read-out: Inhibition Percentage (inhibition rate of COL1A1 promotor's activity in LX2 cells).
Data set [2] is described as follows: MTT cytotoxicity / cell survival assay. In kind it is cell-based. The following applies: human, HepG2 cells, read-out: CC50 (cytotoxic concentration required to inhibit HepG2 cell growth by 50%). The method, then:
A single luciferase reporter gene detection model was applied to screen the inhibitory effects towards COL1A1 promotor of all target compounds in human hepatic stellate LX-2 cells at the concentration of 40 μM, taking EGCG and compound 1 as the positive controls. The LX2-COL monoclone cell line was treated simultaneously with TGFβ1 and a target compound [13]. The cytotoxicity was determined using MTT assay in HepG2 cells.
The cell survival was evaluated by MTT assay. HepG2 cells were seeded at density of 6 × 10^3 cells/well in 96-well plate. Cells were treated with various concentrations of matrinic derivate until the cells at 50% confluence. After 24 h of incubation, 20 µL of the MTT (5 mg/mL) solution was added into each plate and incubated for 4 h at 37 °C, 5% CO2. Subsequently, the culture supernatant was replaced with 150 µL DMSO to dissolve the formazan crystal. The absorbance at 570 nm was measured using a microplate reader (ELx800, BioTek Instruments, Winooski, VT, USA).

As for `CN(C)c1nnc(CCCC2C3CCCN4CCCC(CN2Cc2ccccc2)C34)s1` (stereo not drawn) (as salt: hydrochloride) [Compound 6k, 12-N-Benzyl-3′-(N,N-dimethyl-5-amino-1,3,4-thiadiazol-2-yl)-matrinic propane hydrochloride], the melting point is 189 to 190 °C.

In the case of `O=C(O)CCCC1C2CCCN3CCCC(CN1S(=O)(=O)c1ccc(C(F)(F)F)cc1)C23` (stereo not drawn) [Compound 5a], in data set [1], the inhibition at 40 µM was -3.7%.

As for `O=C(O)CCCC1C2CCCN3CCCC(CN1Cc1ccccc1)C23` (stereo not drawn) [Compound 5b, 12-N-Benzyl matrinic acid], the melting point lay in the range of 95 to 96 °C. The inhibition at 40 µM in data set [1] is -33.6%.

For the compound `Cc1ccc(CN2CC3CCCN4CCCC(C2CCCC(=O)O)C34)cc1` (stereo not drawn) [Compound 5c, 12-N-p-Methylbenzyl matrinic acid], the melting point is 106 to 108 °C. For the same compound, the inhibition at 40 µM in data set [1] is -116%.

Compound `O=C(O)CCCC1C2CCCN3CCCC(CN1Cc1ccc(Br)cc1)C23` (stereo not drawn) [Compound 5d, 12-N-p-Bromobenzyl matrinic acid] yielded a melting point of 134 to 135 °C. Also, the inhibition at 40 µM in data set [1] stood at 6.4%.

As to `Cc1ccc(S(=O)(=O)N2CC3CCCN4CCCC(C34)C2CCCc2nnc(N)s2)cc1` (stereo not drawn) [Compound 6a, 12-N-p-Methlybenzenesulfonyl-3′-(5-amino-1,3,4-thiadiazol-2-yl)-matrinic propane], the melting point was 237 °C (dec.). Also, the inhibition at 40 µM in data set [1] came to 21.2%. In addition, the CC50 at 24 h in data set [2] was above 320 µM.

Turning to `CNc1nnc(CCCC2C3CCCN4CCCC(CN2S(=O)(=O)c2ccc(C)cc2)C34)s1` (stereo not drawn) [Compound 6b, 12-N-p-Mmethlybenzenesulfonyl-3′-(N-methyl-5-amino-1,3,4-thiadiazol-2-yl)-matrinic propane], the melting point was 169 to 170 °C. The inhibition at 40 µM in data set [1] was determined as 12.8%.

Compound `Cc1ccc(S(=O)(=O)N2CC3CCCN4CCCC(C34)C2CCCc2nnc(NC(C)C)s2)cc1` (stereo not drawn) [Compound 6c, 12-N-p-Methylbenzenesulfonyl-3′-(N-iso-propyl-5-amino-1,3,4-thiadiazol-2-yl)-matrinic propane] came in with a melting point of 193 to 194 °C. The inhibition at 40 µM in data set [1] was -84.2%.

Turning to `Cc1ccc(S(=O)(=O)N2CC3CCCN4CCCC(C34)C2CCCc2nnc(N(C)C)s2)cc1` (stereo not drawn) [Compound 6d, 12-N-p-Methylbenzenesulfonyl-3′-(N,N-dimethyl-5-amino-1,3,4-thiadiazol-2-yl)-matrinic propane], the melting point was 142 to 143 °C. Moreover, the inhibition at 40 µM in data set [1] was -36.7%.

With `Nc1nnc(CCCC2C3CCCN4CCCC(CN2S(=O)(=O)c2ccc(C(F)(F)F)cc2)C34)s1` (stereo not drawn) [Compound 6f, 12-N-p-Ttrifluoromethlybenzenesulfonyl-3′-(5-amino-1,3,4-thiadiazol-2-yl)-matrinic propane], the melting point is 206 °C (dec.). For the same compound, the inhibition at 40 µM in data set [1] is -19%.

For `CNc1nnc(CCCC2C3CCCN4CCCC(CN2S(=O)(=O)c2ccc(C(F)(F)F)cc2)C34)s1` (stereo not drawn) [Compound 6g, 12-N-p-Trifluoromethlybenzenesulfonyl-3′-(N-methyl-5-amino-1,3,4-thiadiazol-2-yl)-matrinic propane], the melting point is 181 °C (dec.). In addition, in data set [1], the inhibition at 40 µM was found to be 6.1%.

In the case of `CN(C)c1nnc(CCCC2C3CCCN4CCCC(CN2S(=O)(=O)c2ccc(C(F)(F)F)cc2)C34)s1` (stereo not drawn) [Compound 6h, 12-N-p-Trifluoromethlybenzenesulfonyl-3′-(N,N-dimethyl-5-amino-1,3,4-thiadiazol-2-yl)-matrinic propane], the melting point fell in the range of 147 to 148 °C. In data set [1], the inhibition at 40 µM is -35.2%.

The compound `CNc1nnc(CCCC2C3CCCN4CCCC(CN2Cc2ccccc2)C34)s1` (stereo not drawn) [Compound 6j, 12-N-Benzyl-3′-(N-methyl-5-amino-1,3,4-thiadiazol-2-yl)-matrinic propane] yielded a melting point of 137 to 138 °C. Also, the inhibition at 40 µM in data set [1] was 29.5%.

Regarding `CN(C)c1nnc(CCCC2C3CCCN4CCCC(CN2Cc2ccccc2)C34)s1` (stereo not drawn) [Compound 6k, 12-N-Benzyl-3′-(N,N-dimethyl-5-amino-1,3,4-thiadiazol-2-yl)-matrinic propane hydrochloride], the inhibition at 40 µM in data set [1] turned out to be 15.2%.

`CNc1nnc(CCCC2C3CCCN4CCCC(CN2Cc2ccc(C)cc2)C34)s1` (stereo not drawn) [Compound 6m, 12-N-p-Methylbenzyl-3′-(N-methyl-5-amino-1,3,4-thiadiazol-2-yl)-matrinic propane] registered a melting point of 163 to 164 °C. Moreover, the inhibition at 40 µM in data set [1] was -29.6%.

Compound `Nc1nnc(CCCC2C3CCCN4CCCC(CN2Cc2ccc(Br)cc2)C34)s1` (stereo not drawn) [Compound 6o, 12-N-p-Bromobenzyl-3′-(5-amino-1,3,4-thiadiazol-2-yl)-matrinic propane] displayed a melting point of 193 to 194 °C. In addition, the inhibition at 40 µM in data set [1] amounted to 7.8%.

On to `CC(=O)Nc1nnc(CCCC2C3CCCN4CCCC(CN2S(=O)(=O)c2ccc(C)cc2)C34)s1` (stereo not drawn) [Compound 7a, 12-N-p-Methylblenzenesulfonyl-3′-(5-acetylamino-1,3,4-thiadiazol-2-yl)-matrinic propane], for which the melting point is 273 °C (dec.). The inhibition at 40 µM in data set [1] was found to be 33.9%.

In the case of `CC(=O)Nc1nnc(CCCC2C3CCCN4CCCC(CN2S(=O)(=O)c2ccc(C(F)(F)F)cc2)C34)s1` (stereo not drawn) [Compound 7b, 12-N-p-Trifluoromethlybenzenesulfonyl-3′-(5-acetylamino-1,3,4-thiadiazol-2-yl)-matrinic propane], the melting point is 197 °C (dec.). The inhibition at 40 µM in data set [1] is -6%.

Consider `CC(=O)Nc1nnc(CCCC2C3CCCN4CCCC(CN2Cc2ccccc2)C34)s1` (stereo not drawn) [Compound 7c, 12-N-Benzyl-3′-(5-acetylamino-1,3,4-thiadiazol-2-yl)-matrinic propane], for which the melting point lay within 188 to 189 °C. For the same compound, in data set [1], the inhibition at 40 µM stood at 12.9%.

For `CC(=O)Nc1nnc(CCCC2C3CCCN4CCCC(CN2Cc2ccc(C)cc2)C34)s1` (stereo not drawn) [Compound 7d, 12-N-p-Methylbenzyl-3′-(5-acetylamino-1,3,4-thiadiazol-2-yl)-matrinic propane], the melting point was 226 °C (dec.). Further, the inhibition at 40 µM in data set [1] stood at 27%.

For `O=C(O[C@@H]1Cc2c(O)cc(O)cc2O[C@@H]1c1cc(O)c(O)c(O)c1)c1cc(O)c(O)c(O)c1` [EGCG, epigallocatechin gallate, reference compound], the “Inhibition Percentage (inhibition rate of COL1A1 promotor's activity in LX2 cells)” value in data set [1] (40 μM) was 27.5% ± 7.9%.

Broadly, the melting point is the temperature of the solid-liquid transition. As a reminder, the inhibition is the change of the read-out against control, counted positive when it falls.

Source of the values: paper PMC6099493, “Discovery of Matrinic Thiadiazole Derivatives as a Novel Family of Anti-Liver Fibrosis Agents via Repression of the TGFβ/Smad Pathway” (Molecules : A Journal of Synthetic Chemistry and Natural …, 2018).
